In patent publication US10280183B2, “Therapeutic agent for treating tumors” (THE RESEARCH FOUNDATION FOR THE STATE UNIVERSITY OF NEW YORK, priority 2014, dated 2019):
Where two headings read alike, the source gives them in different places.

What was measured:
[1] = system: L1210FR murine lymphocytic leukemia cell line (BR+); assay: In vitro cytotoxicity, standard MTT assay, L1210FR cells; type: cell-based
Procedure: (§1) Cell Culture. All cell lines were obtained from ATCC unless otherwise noted. Cells were cultured in RPMI-1640 cell culture medium (Gibco) or DMEM (Gibco), both supplemented with 5% (v/v) heat-inactivated fetal bovine serum (FBS), 5% (v/v) NuSerum, and 1% (v/v) penicillin and streptomycin (PenStrep) at 37° C. in a humidified atmosphere with 5% CO2. MX-1 and ID8 (obtained from University of Kansas Medical Center) cells were cultured as monolayers on 100 mm tissue culture dishes in supplemented RPMI-1640. L1210 and L1210FR (a gift from Dr. Gregory Russell-Jones, Access Pharmaceuticals Pty Ltd., Australia) were grown as a suspension in supplemented RPMI-1640, and WI-38 as a monolayer in supplemented DMEM. Cells were harvested, collected by centrifugation at 850 rpm for 5 min, and resuspended in fresh culture medium. Cell cultures were routinely divided by treatment with trypsin (TrypLE, Gibco) as needed every 2-4 days and collected by centrifugation at 850 rpm for 5 min, and resuspended in fresh cell culture medium, containing varying cell densities for subsequent biological experiments and analysis.
(§2) In Vitro Cytotoxicity Assays. […] Cells were harvested, collected, and resuspended in 100 μL cell culture medium at concentrations ranging from 0.5-1.5×10^4 cells per well in a 96-well plate. For adhesive cell types, cells were allowed to descend to the bottom of the wells overnight, and fresh medium was added to each well upon removal of the old medium.
(§3) For the MTT assay (Table 1 and the Assay 1 in Table 2) of paclitaxel, taxoid 3 and conjugates 1 and 15, cells were resuspended in 200 μL medium with 8,000 to 10,000 cells per well of a 96-well plate and incubated at 37° C. for 24 h before drug treatment. In DMSO stock solutions, each drug or conjugate was diluted to a series of concentrations in cell culture medium to prepare test solutions. After removing the old medium, these test solutions were added to the wells in the 96-well plate to give the final concentrations ranging from 0.5 to 5,000 nM (100 μL), and the cells were subsequently cultured at 37° C. for 48 h (Table 1) or 72 h (Table 2, Assay 1). For the leukemia cell lines, L1210 and L1210FR, cells were harvested, collected, and resuspended in the test solutions ranging from 0.5 to 5,000 nM (100 μL) at 0.5 to 0.8 ×10^4 cells per well in a 96-well plate and subsequently incubated at 37° C. for 48 h (Table 1) or 72 h (Table 2, Assay 1).
(§4) In the Assay 2 (Table 2), cells were incubated with 1 or 15 at 37° C. for 24 h, and the drug medium was removed. Then, treated cells were thoroughly washed with PBS, and GSH-OEt (6 equiv. to conjugate) in cell culture medium (200 μL) was added to the wells. These cells were incubated at 37° C. for an additional 48 h, i.e., the total incubation time was 72 h.
(§5) In the Assay 3 (Table 2), cells were incubated with 1 or 15 at 37° C. for 24 h, and GSH-OEt (6 equivalents) in cell culture medium (100 μL) was directly added to the wells. These cells were incubated at 37° C. for an additional 48 h, i.e. the total incubation time was also 72 h.
(§6) For all experiments, after removing the test medium, fresh solution of MTT in PBS (40 μL of 0.5 mg MTT/mL) was added to the wells, and the cells were incubated at 37° C. for 3 h. The MTT solution was then removed, and the resulting insoluble violet formazan crystals were dissolved in 0.1 N HCl in isopropanol with 10% Triton X-100 (40 μL) to give a violet solution. The spectrophotometric absorbance measurement of each well in the 96-well plate was run at 570 nm using a Labsystems Multiskan Ascent microplate reader. The IC50 values and their standard errors were calculated from the viability-concentration curve using Four Parameter Logistic Model of Sigmaplot. The concentration of DMSO per well was ≤1% in all cases. Each experiment was run in triplicate.

[2] = system: WI38 human lung fibroblast cell line (BR−); assay: In vitro cytotoxicity, standard MTT assay, WI38 cells; type: cell-based; conditions: 24 hour incubation; read-out: IC50, WI38 (normal lung)
[3] = system: ID8 murine ovarian carcinoma cell line (BR+); assay: In vitro cytotoxicity, standard MTT assay, ID8 cells; type: cell-based
Procedure: as §1, §2
as §3, with “After removing the old medium, these test solutions were added to the wells in the 96-well plate to give the final concentrations ranging from 0.5 to 5,000 nM (100 μL), and the cells were subsequently cultured at 37° C. for 48 h (Table 1) or 72 h (Table 2, Assay 1).” left out
as §6

[4] = system: WI38 human lung fibroblast cell line (BR−); assay: In vitro cytotoxicity, standard MTT assay, WI38 cells; type: cell-based; conditions: 72 h drug incubation; read-out: IC50, WI38 (normal lung)
Procedure: as §1, §2, §3, §4, §5, §6

[5] = system: L1210 murine lymphocytic leukemia cell line (BR−); assay: In vitro cytotoxicity, standard MTT assay, L1210 cells; type: cell-based
Procedure: as §1, §2, §3, §6

[6] = system: MCF-7 (breast); assay: In vitro cytotoxicity, standard MTT assay, MCF-7 cells; type: cell-based; conditions: 72 h drug incubation
Procedure: as §2
For the MTT assay (Table 1 and the Assay 1 in Table 2) of paclitaxel, taxoid 3 and conjugates 1 and 15, cells were resuspended in 200 μL medium with 8,000 to 10,000 cells per well of a 96-well plate and incubated at 37° C. for 24 h before drug treatment. In DMSO stock solutions, each drug or conjugate was diluted to a series of concentrations in cell culture medium to prepare test solutions. […]
For all experiments, after removing the test medium, fresh solution of MTT in PBS (40 μL of 0.5 mg MTT/mL) was added to the wells, and the cells were incubated at 37° C. for 3 h. […] The spectrophotometric absorbance measurement of each well in the 96-well plate was run at 570 nm using a Labsystems Multiskan Ascent microplate reader. The IC50 values and their standard errors were calculated from the viability-concentration curve using Four Parameter Logistic Model of Sigmaplot. […]

[7] = system: L1210FR murine lymphocytic leukemia cell line (BR+); assay: In vitro cytotoxicity, standard MTT assay, L1210FR cells; type: cell-based; conditions: 24 hour incubation; read-out: IC50, L1210 FR (leuk.)
[8] = system: MX-1 human breast carcinoma cell line (BR+); assay: In vitro cytotoxicity, standard MTT assay, MX-1 cells; type: cell-based
Procedure: as §1, §2, §3, §4, §5, §6

[9] = In vitro cytotoxicity, standard MTT assay, WI38 cells; type: cell-based, human; conditions: human
Procedure: as §1, §2, §3, §4, §5, §6

[10] = system: BR+ cancer cell lines (L1210FR, MX-1, ID8); assay: MTT cytotoxicity summarised over BR+ cancer cell lines; type: cell-based
Procedure: as §2, §3, §4, §5, §6
Thus, the Assay 1 results provide the potency of conjugates in the same manner as that for the first assay summarized in Table 1, but for longer incubation time (48 h vs. 72 h). […] Accordingly, this assay may mimic the corresponding in vivo assay conditions, wherein non-internalized conjugates would be removed from the tumor, redistributed and eventually excreted. […] Thus, in principle, the results (IC50 values) in this assay should be very close to those for the control using taxoid 3 (entry 2).

Which results are given for `CC[C@@]1(OC(=O)Cc2ccccc2SSC(C)CCC(=O)NCCOCCOCCOCCn2cc(CNc3nc(NCCNC(=O)CCC(C)SSc4ccccc4CC(=O)O[C@@H](C(=O)O[C@H]4C[C@@]5(O)[C@@H](OC(=O)c6ccccc6)[C@@H]6[C@]7(OC(C)=O)CO[C@@H]7C[C@H](O)[C@@]6(C)C(=O)[C@H](OC(=O)C6CC6)C(=C4C)C5(C)C)[C@H](C=C(C)C)NC(=O)OC(C)(C)C)nc(NCCOCCOCCOCCNC(=O)CCCC[C@@H]4SC[C@@H]5NC(=O)N[C@@H]54)n3)nn2)C(=O)OCc2c1cc1n(c2=O)Cc2cc3ccccc3nc2-1` (stereo partly shown) [Compound 116]?
IC50 ([1]; 72 h drug incubation, read-out: IC50, L1210FR (leuk.)): 39.1 nM; IC50 [2]: 705 nM; IC50 ([3]; 24 hour incubation, read-out: IC50, ID8 (ovarian)): 5.66 nM; IC50 ([3]; 72 h drug incubation, read-out: IC50, ID8 (ovarian)): 23.4 nM; IC50 [4]: 742 nM; IC50 ([5]; 72 h drug incubation, read-out: IC50, L1210 (leuk.)): 690 nM; IC50 [6]: 19 nM; IC50 [7]: 7.4 nM; IC50 ([8]; 24 hour incubation, read-out: IC50, MX-1 (breast)): 9.8 nM; IC50 ([8]; 72 h drug incubation, read-out: IC50, MX-1 (breast)): 51.7 nM

Which results are given for `CC(=O)O[C@@]12CO[C@@H]1C[C@H](O)[C@@]1(C)C(=O)[C@H](OC(=O)C3CC3)C3=C(C)[C@@H](OC(=O)[C@H](OC(=O)Cc4ccccc4SSC(C)C(=O)NCCNc4nc(NCCOCCOCCOCCNC(=O)CCCC[C@@H]5SC[C@@H]6NC(=O)N[C@@H]65)nc(NCc5cn(CCOCCOCCOCCF)nn5)n4)[C@H](C=C(C)C)NC(=O)OC(C)(C)C)C[C@@](O)([C@@H](OC(=O)c4ccccc4)[C@H]21)C3(C)C` (stereo partly shown) [Conjugate 1]?
IC50 ([1]; Mus musculus, 48 h, read-out: Cytotoxicity IC50, L1210FR): 14.7 ± 4 nM; IC50 ([1]; Mus musculus, 72 h, read-out: Cytotoxicity IC50, L1210FR, Assay 1): 10.2 ± 3 nM; IC50 ([1]; Mus musculus, read-out: Cytotoxicity IC50, L1210FR, Assay 2): 6.6 ± 3.96 nM; IC50 ([1]; Mus musculus, read-out: Cytotoxicity IC50, L1210FR, Assay 3): 2.79 ± 1.43 nM; IC50 ([3]; Mus musculus, Ovarian carcinoma cell, 48 h, read-out: Cytotoxicity IC50, ID8): 6.62 ± 0.86 nM; IC50 at 72 h ([9]; 24 h incubation, PBS wash, then GSH-OEt (6 equiv.) and additional 48 h, read-out: Cytotoxicity IC50, WI38, Assay 2): 615 ± 97 nM; IC50 at 72 h ([9]; 24 h incubation, then GSH-OEt (6 equiv.) added without washing, additional 48 h, read-out: Cytotoxicity IC50, WI38, Assay 3): 12.9 ± 4.3 nM; IC50 at 72 h ([9]; 72 h incubation, no GSH-OEt, read-out: Cytotoxicity IC50, WI38, Assay 1): 682 ± 110 nM; IC50 at 48 h ([9]; incubation at 37° C. for 48 h): 709 nM; IC50 ([5]; Mus musculus, L1210, 48 h, read-out: Cytotoxicity IC50, L1210): 593 nM; IC50 ([10]; 24 h, PBS wash, GSH-OEt, additional 48 h, range over conjugates 1 and 15, read-out: IC50 range against BR+ cancer cells (MX-1, L1210FR), Assay 2): 3.85 to 6.6 nM; IC50 ([10]; 48 h, read-out: Cytotoxicity IC50, range over L1210FR, MX-1 and ID8): 6 to 21 nM; Cancer cell selectivity (BR-specificity), BR+ cancer cells vs BR− WI38 cells ([10]; Assay 2): two-orders of magnitude difference; IC50 ([10]; GSH-OEt added after 24 h without PBS washing, additional 48 h, range over conjugates 1 and 15, read-out: IC50 range against MX-1 and L1210FR, third assay (Assay 3)): 2.4 to 2.92 nM; IC50 ([8]; Homo sapiens, Breast carcinoma cell, 48 h, read-out: Cytotoxicity IC50, MX-1): 21.2 ± 4.6 nM; IC50 ([8]; Homo sapiens, Breast carcinoma cell, 72 h, read-out: Cytotoxicity IC50, MX-1, Assay 1): 6.27 ± 2.06 nM; IC50 ([8]; Homo sapiens, Breast carcinoma cell, read-out: Cytotoxicity IC50, MX-1, Assay 2): 4.79 ± 0.12 nM; IC50 ([8]; Homo sapiens, Breast carcinoma cell, read-out: Cytotoxicity IC50, MX-1, Assay 3): 2.56 ± 0.15 nM
